Assays:
[1] = cited from earlier work
[2] = Pharmacokinetics of inhaled tacrolimus in healthy volunteers, 1 mg BID repeat dose group (Part B); type: in vivo, human
Experimental: The study is a blinded, randomized, placebo-controlled, multiple dose, dose-escalation study. Part B begins once the first three cohorts of Part A have completed and safety data has been reviewed. Twenty-four (24) healthy adult male and female (women of non-child-bearing potential only) subjects were enrolled. Eight (8) subjects were assigned to each of three dose levels (1.0 mg BID, 0.5 mg BID, or QD dose of either 1.0, 1.5, or 2.0mg, as determined by the SMC at the conclusion of Cohort 2 and after examining the safety and TDM data from that cohort) with six (6) subjects per cohort receiving tacrolimus inhalation and two (2) subjects receiving placebo.
Screening of subjects occurred within 28 days prior to the first dose administered. Study subjects were randomized to receive either a placebo or tacrolimus inhalation powder by inhalation. The subject assignment were blinded to the investigator, study coordinators and study subjects. Subjects were automatically replaced if they discontinue the study prior to dosing. On Day 1, subjects in each cohort begins receiving tacrolimus or placebo administered twice a day (every 12 hours) for Cohorts 1 and 2, and tacrolimus or placebo administered once per day (every 24 hours) for Cohort 3,through the Plastiape® inhaler. Blood samples and safety measurements were performed over 1 week as scheduled. […]
PK parameters for plasma tacrolimus are calculated as follows, as appropriate: AUC0-24: The area under the concentration-time curve, from time 0 to the 24-hour time point, as calculated by the linear trapezoidal method. If the 24-hour plasma concentration is missing, below the limit of quantification or not reportable, then this parameter will not be calculated. AUC0-t: The area under the concentration-time curve, from time 0 to the last observed non-zero concentration, as calculated by the linear trapezoidal method. […] AUC0-inf is calculated as the sum of AUC0-t plus the ratio of the last measurable plasma concentration to the elimination rate constant. […] CL/F Apparent total body clearance after oral administration, calculated as Dose/AUC0-inf. […] Kel: Apparent first-order terminal elimination rate constant calculated from a semi-log plot of the plasma concentration versus time curve. The parameter will be calculated by linear least-squares regression analysis using the maximum number of points in the terminal log-linear phase (e.g., three or more non-zero plasma concentrations). t1/2: Apparent first-order terminal elimination half-life are calculated as 0.693/Kel. Vz/F: Apparent volume of distribution during the terminal elimination phase after oral administration, calculated as […]. […]

[3] = oral administration, cited from earlier work
[4] = inhalation 1 mg BID, healthy volunteers

tacrolimus plasma exposure, actual arithmetic mean ([2]; inhalation 1 mg BID repeat dose, healthy volunteers, preliminary): 45 ng/mL | Cmin (trough) concentrations at 12 h compared with oral PK model [2, 4]: slightly higher than predicted | observed Cmax compared with oral PK model [2, 4]: lower than predicted
Compound: C=CC[C@@H]1/C=C(\C)C[C@H](C)C[C@H](OC)[C@H]2O[C@@](O)(C(=O)C(=O)N3CCCC[C@H]3C(=O)O[C@H](/C(C)=C/[C@@H]3CC[C@@H](O)[C@H](OC)C3)[C@H](C)[C@@H](O)CC1=O)[C@H](C)C[C@@H]2OC [tacrolimus, (1R,9S,12S,13R,14S,17R,18E,21S,23S,24R,25S,27R)-1,14-dihydroxy-12-[(E)-1-[(1R,3R,4R)-4-hydroxy-3-methoxycyclohexyl]prop-1-en-2-yl]-23 ,25-dimethoxy-13,19,21,27-tetramethyl-17-prop-2-enyl-11,28-dioxa-4-azatricyclo [22.3.1.0^4.8]octacos-18-ene-2,3,10,16-tetrone]
solubility in water [1]: practically insoluble in water | actual trough values at 12 hours post dose compared with simulated exposure ([2]; inhalation 1 mg BID, Day 1 and Day 7): closer to the upper 90% confidence interval for simulated exposure | absorption ([3]; Prograf label): < 25% | variability of absorption (%CV range) ([3]; depending on the study): 28-58%

Reference: patent US20220362222A1, “ONCE DAILY FORMULATIONS OF TACROLIMUS” (TFF Pharmaceuticals, Inc., priority 2021, published 2022)
